Consider 2 compounds from patent US20260232835A1, “AFFIBODY MICELLE DRUG CONJUGATE” (KOWA COMPANY, LTD., priority 2022, published 2026).

SMILES strings stand for the structures. pIC50: −log10 of the molar value.

The test system of test [1] is mouse colon cancer cell line C26. As to the kind of experiment: Drug efficacy test in cancer-carrying nude mice with subcutaneously transplanted C26. It counts as in vivo. Conditions: after 14 days from administration; tail vein, 3 times every other day; DACHPt-encapsulating SCNP 3 mg/kg in terms of Pt, oxaliplatin solution 8 mg/kg (3.9 mg/kg in terms of Pt). How it is done: Cancer-carrying models obtained by subcutaneously transplanting a mouse colon cancer cell line C26 (American Type Culture Collection) into female nude mice (BALB/c-nu/nu, 7 weeks old; Charles River Laboratories Japan, Inc.) were used for the drug efficacy test.
The mouse colon cancer cell line C26 subcultured in a CO2 incubator was suspended in a liquid medium (Dulbecco's Modified Eagle's Medium-high glucose, Sigma-Aldrich), and injected subcutaneously in the back of each of the nude mice such that the number of cells per mouse was 1×106/100 μL. Then, the nude mice were raised for about 1 week, and then administration of the agent was started when an average value of tumor volumes was grown to about 30 mm^3. The DACHPt-encapsulating SCNP (DACHPt-encapsulating SCNP prepared using the copolymer of Example 70) was administered through the tail veins of the mice (3 times every other day), and antitumor effects were evaluated based on the tumor volumes (4 to 5 mice per 1 group). As a comparison, an oxaliplatin solution (Comparative Example 1) was used, and the oxaliplatin solution was administered in the same manner. The dose of each preparation was 8 mg/kg (3.9 mg/kg in terms of Pt) as the maximum administrable dose for the oxaliplatin solution, and 3 mg/kg in terms of Pt for the DACHPt-encapsulating SCNP. […]

Test [2] deals with human breast cancer cell line MDA-MB-468. As to the kind of experiment: Cytotoxic test (CellTiter-Glo cell viability), MDA-MB-468. It counts as cell-based. Conditions: Table 8, cultured for 4 days, read-out: IC50 HER2-negative MDA-MB-468. For orientation: ATP-based viability assays read luminescence as a measure of living cells.
Method: (§1) The mertansine (DM1) (Cayman CHEMICAL) was dissolved in dimethyl sulfoxide (DMSO: FUJIFILM Wako Pure Chemical Corporation) to prepare DM1 solutions of 60 μmol/L, 20 μmol/L, 6.7 μmol/L, 2.2 μmol/L, 0.74 μmol/L, 0.25 μmol/L, 0.082 μmol/L, and 0.027 μmol/L. Next, after a dilution series of 60 nmol/L, 20 nmol/L, 6.7 nmol/L, 2.2 nmol/L, 0.74 nmol/L, 0.25 nmol/L, 0.082 nmol/L, and 0.027 nmol/L were created by respectively diluting these solutions with RPMI1640 (hereinafter, RPMI1640 medium) containing 10% fetal bovine serum (Merck KGaA), these solutions were respectively added to a cell culture microplate in equal amounts to a cell culture liquid, and diluted to 1/2, thereby evaluating the cytotoxic effects thereof at a final DM1 concentration of 30 nmol/L, 10 nmol/L, 3.3 nmol/L, 1.1 nmol/L, 0.37 nmol/L, 0.12 nmol/L, 0.041 nmol/L, or 0.014 nmol/L.
(§2) A HER2 antigen-positive human gastric cancer cell line HCC-1954 (American Type Culture Collection) or a HER2 antigen-negative human breast cancer cell line MDA-MB-468 (American Type Culture Collection) was adjusted to a cell concentration of 2.0×10^4 cells/mL with the RPMI1640 medium, and 100 μL each was added to the 96 well microplate for cell culture and cultured overnight. […] The light emission amount was then measured with the plate reader (Molecular Devices, LLC.). The cell viability was calculated by the following equation. […]
Test [3] has as its system HER2 antigen-positive human cancer cell line HCC-1954. Description: Cytotoxic test (CellTiter-Glo cell viability), HCC-1954. The format is cell-based. Conditions: cultured for 4 days.
Method: as §1, §2

On to `O=C1[O][Pt]2([NH][C@@H]3CCCC[C@H]3[NH]2)[O]C1=O` [oxaliplatin solution, oxaliplatin], for which the “T/C: ratio of the tumor volume of the drug administration group (T) to that of the control group (C)” value in test [1] turned out to be 1.1.
What is called pIC50 is the IC50 on a negative log10 scale, so that one unit is a factor of ten. Turning to `COc1cc2cc(c1Cl)N(C)C(=O)C[C@H](OC(=O)[C@H](C)N(C)C(=O)CCS)[C@]1(C)O[C@H]1[C@H](C)[C@@H]1C[C@@](O)(NC(=O)O1)[C@H](OC)/C=C/C=C(\C)C2` [Comparative example 2, mertansine, reference compound], the results for the pIC50 in test [2] and in test [3] were 9.39 and 9.96, respectively.
